Laboratory results published in article PMC8162404, “Proteomimetic surface fragments distinguish targets by function” (Chemical Science, 2020).

Experiments:
RecQ-WH [1] = molecular target: T1, RecQ-WH (Escherichia coli, UniProt P15043); assay: Pull-down assay with immobilized protein and LSM libraries; design: species or system E. coli; conditions: H14 library; 1:1 binding assumed; read-out: Surface mapping KD (apparent)
T1 construct: coding for residues 408– 523 of E. coli RecQ; made in house; host or cells: E. coli BL21(DE3)
T1 sequence (P15043 408-523): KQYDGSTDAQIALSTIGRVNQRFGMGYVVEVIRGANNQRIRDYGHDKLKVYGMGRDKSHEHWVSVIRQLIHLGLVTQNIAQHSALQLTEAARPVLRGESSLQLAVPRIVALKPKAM
Procedure, shortened: (§1)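 His-tagged protein immobilized on Co-NTA resin (64 µM) in 20 mM HEPES pH 7.4, 150 mM NaCl, equilibrated 30 min at room temperature with foldamer LSM sublibraries at equimolar total concentration. Unbound fractions quantified by HPLC-MS versus protein-free resin control; apparent KD assumes 1:1 binding.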

Gal-1 [2] = molecular target: T2, Gal-1 (Homo sapiens, UniProt P09382); assay: as above; assay type: binding; conditions: H14 library; 1:1 binding assumed; read-out: Surface mapping KD (apparent)
T2 construct: made in house; host or cells: E. coli BL21(DE3)
T2 sequence (P09382 whole entry): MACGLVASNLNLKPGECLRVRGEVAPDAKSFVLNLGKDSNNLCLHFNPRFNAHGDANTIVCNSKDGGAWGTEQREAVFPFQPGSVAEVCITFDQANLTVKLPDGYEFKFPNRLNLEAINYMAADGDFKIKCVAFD
Procedure, shortened: as §1

S100A4 [3] = molecular target: T3, S100A4 (Homo sapiens, UniProt P26447); assay: as above; assay type: binding; conditions: for Kd: H14 library, 1:1 binding assumed, read-out: Surface mapping KD (apparent); for Affinity class of probe (high, medium, low) in pull-down: H14 probes selected for validation
T3 construct: made in house; host or cells: Escherichia coli BL21(DE3)
T3 sequence (P26447 whole entry): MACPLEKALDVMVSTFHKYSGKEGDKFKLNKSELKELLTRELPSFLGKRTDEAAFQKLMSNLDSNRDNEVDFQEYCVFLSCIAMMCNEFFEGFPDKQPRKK
Procedure, shortened: (§2)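 Buffers were HEPES pH 7.4 with 150 mM NaCl, plus 1 mM TCEP and 1 mM CaCl2 (50 mM HEPES) for S100A4 and S100B, 1 mM TCEP for Gal-1, and no additive for RecQ-WH. Immobilized protein at 64 µM was equilibrated 30 min with the LSM sublibrary, and unbound probes were measured by LC-MS.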

S100B [4] = molecular target: T4, S100B (Homo sapiens, UniProt P04271); assay: as above; assay type: binding; conditions: for Kd: H14 library, 1:1 binding assumed, read-out: Surface mapping KD (apparent); for Affinity class of probe (high, medium, low) in pull-down: H14 probes selected for validation
T4 construct: made in house; host or cells: Escherichia coli BL21(DE3)
T4 sequence (P04271 1-92): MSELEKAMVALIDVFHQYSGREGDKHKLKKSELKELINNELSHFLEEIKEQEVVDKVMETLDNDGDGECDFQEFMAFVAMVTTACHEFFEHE
Procedure, shortened: as §2

S100B [5] = molecular target: T4, S100B; assay: Competition pull-down with native ligand RSK1 (689–735); assay type: binding; conditions: H14 library; competitor peptide 200 µM; read-out: Surface mapping KD (apparent), competition
CaM [6] = molecular target: T5, CaM (Bos taurus, UniProt P62157); assay: Competition pull-down with native ligand TRPV1-Ct15; assay type: binding, bovine; conditions: H14 library; competitor peptide 200 µM; read-out: Surface mapping KD (apparent), competition
T5 construct: made in house; host or cells: E. coli BL21 (DE3)

RecQ-WH [7] = molecular target: T1, RecQ-WH; assay: Competition pull-down with native ligand SSB-Ct8; assay type: binding, E. coli; conditions: H14 library; competitor peptide 200 µM; read-out: Surface mapping KD (apparent), competition
S100A4 [8] = molecular target: T3, S100A4; assay: Competition pull-down with native ligand NMIIA (1893–1923); assay type: binding; conditions: H14 library; competitor peptide 200 µM; read-out: Surface mapping KD (apparent), competition
CaM [9] = molecular target: T5, CaM; assay: Pull-down assay with immobilized protein and LSM libraries; assay type: binding, bovine; conditions: H14 library; 1:2 stoichiometry assumed; read-out: Surface mapping KD (apparent)
Procedure, shortened: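 His-tagged protein immobilized on Co-NTA resin, equilibrated 30 min at room temperature with LSM sublibraries (64 members, […]), equimolar protein to total probe. CaM buffer: 20 mM HEPES pH 7.4, 150 mM NaCl, 5 mM CaCl2. Bound fractions from HPLC-MS loss of unbound probe versus protein-free resin control; Kd derived.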

Gal-1 [10] = molecular target: T2, Gal-1; assay: Competition pull-down with lactose; assay type: binding; conditions: H14 library; lactose 10 mM; read-out: Surface mapping KD (apparent), competition
Procedure, shortened: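 His6-tagged proteins immobilized on Co-NTA resin at 64 µM final with 64-member LSM foldamer sublibraries (1 M each, as printed) in pH 7.4 HEPES/NaCl buffers (Ca2+/TCEP per target), 30 min RT; competitor peptides 200 µM final, lactose 10 mM for Gal-1. Bound fractions from LC-MS loss vs protein-free resin; KD assuming 1:1 binding.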

SMILES	Kd (RecQ-WH [1]) [µM]	Kd (Gal-1 [2]) [µM]	Kd (S100A4 [3]) [µM]	Kd (S100B [4]) [µM]	Kd (S100B [5]) [µM]	Kd (CaM [6]) [µM]	Kd (RecQ-WH [7]) [µM]	Kd (S100A4 [8]) [µM]	Kd (CaM [9]) [µM]	Kd (Gal-1 [10]) [µM]	Affinity class of probe (high, medium, low) in pull-down (S100A4 [3])	Affinity class of probe (high, medium, low) in pull-down (S100B [4])
CC[C@H](C)[C@@H](CC(=O)N[C@H]1CCCC[C@@H]1C(N)=O)NC(=O)[C@H]1CCCC[C@@H]1NC(=O)[C@H]1CCCC[C@@H]1NC(=O)C[C@H](Cc1ccccc1)NC(=O)[C@H]1CCCC[C@@H]1N [H14 FI]	79	102	9	21	202	121	266	280	0.6	164		
CC(C)C[C@@H](CC(=O)N[C@H]1CCCC[C@@H]1C(N)=O)NC(=O)[C@H]1CCCC[C@@H]1NC(=O)[C@H]1CCCC[C@@H]1NC(=O)C[C@H](Cc1ccccc1)NC(=O)[C@H]1CCCC[C@@H]1N [H14 FL]	79	102	9	21	202	121	266	280	0.6	164		
CC(C)[C@@H](CC(=O)N[C@H]1CCCC[C@@H]1C(N)=O)NC(=O)[C@H]1CCCC[C@@H]1NC(=O)[C@H]1CCCC[C@@H]1NC(=O)C[C@H](Cc1ccccc1)NC(=O)[C@H]1CCCC[C@@H]1N [H14 FV]	129	199	12	44	253	141		376	1.2	323		
NC(=O)[C@H]1CCCC[C@@H]1NC(=O)C[C@H](Cc1c[nH]c2ccccc12)NC(=O)[C@H]1CCCC[C@@H]1NC(=O)[C@H]1CCCC[C@@H]1NC(=O)C[C@H](Cc1ccccc1)NC(=O)[C@H]1CCCC[C@@H]1N [H14 FW]	63	81	24	27	177	118	153	440	0.7	122		
CC[C@H](C)[C@@H](CC(=O)N[C@H]1CCCC[C@@H]1C(=O)N[C@H]1CCCC[C@@H]1C(=O)N[C@H](CC(=O)N[C@H]1CCCC[C@@H]1C(N)=O)Cc1ccccc1)NC(=O)[C@H]1CCCC[C@@H]1N [H14 IF]	186	33	2	9	64	102	439	162	9	53	high	high
CC[C@H](C)[C@@H](CC(=O)N[C@H]1CCCC[C@@H]1C(N)=O)NC(=O)[C@H]1CCCC[C@@H]1NC(=O)[C@H]1CCCC[C@@H]1NC(=O)C[C@@H](NC(=O)[C@H]1CCCC[C@@H]1N)[C@@H](C)CC [H14 II]	160	24	2	19	147	280	364	101	9	50		
CC[C@H](C)[C@@H](CC(=O)N[C@H]1CCCC[C@@H]1C(=O)N[C@H]1CCCC[C@@H]1C(=O)N[C@H](CC(=O)N[C@H]1CCCC[C@@H]1C(N)=O)CC(C)C)NC(=O)[C@H]1CCCC[C@@H]1N [H14 IL]	206	24	2	19	147	276	266	101	9	50	high	high
CC[C@H](C)[C@@H](CC(=O)N[C@H]1CCCC[C@@H]1C(=O)N[C@H]1CCCC[C@@H]1C(=O)N[C@H](CC(=O)N[C@H]1CCCC[C@@H]1C(N)=O)Cc1c[nH]c2ccccc12)NC(=O)[C@H]1CCCC[C@@H]1N [H14 IW]	195	38	8	21	67	88	315	244	0.4	65		
